This note sets out measurements from ChEMBL document CHEMBL1151074, “RATIONAL DESIGN, SYNTHESIS, AND SERINE PROTEASE INHIBITORY ACTIVITY OF NOVEL P1-ARGININOYL HETEROCYCLES” (Bioorg Med Chem Lett, 1997).

One experiment deals with Plasminogen (Rattus norvegicus, UniProt Q01177). The experiment is described as follows: Inhibitory concentration against plasmin.
In the next experiment the target is Prothrombin (Homo sapiens, UniProt P00734). The experiment is described as follows: Inhibitory concentration against thrombin(FIIa).
A short description of experiment [1]: Inhibitory concentration against factor Xa(FXa).
The next experiment concerns the target Serine protease 1 (Homo sapiens, UniProt P07477). The experiment is described as follows: Inhibitory concentration against trypsin.

Bounds are passed on as bounds.

The IC50 is the concentration needed to halve the response being measured. High values mean a need for much substance, low ones inhibition by little substance.

Plasminogen, sequence (Q01177 97-581 limits assumed): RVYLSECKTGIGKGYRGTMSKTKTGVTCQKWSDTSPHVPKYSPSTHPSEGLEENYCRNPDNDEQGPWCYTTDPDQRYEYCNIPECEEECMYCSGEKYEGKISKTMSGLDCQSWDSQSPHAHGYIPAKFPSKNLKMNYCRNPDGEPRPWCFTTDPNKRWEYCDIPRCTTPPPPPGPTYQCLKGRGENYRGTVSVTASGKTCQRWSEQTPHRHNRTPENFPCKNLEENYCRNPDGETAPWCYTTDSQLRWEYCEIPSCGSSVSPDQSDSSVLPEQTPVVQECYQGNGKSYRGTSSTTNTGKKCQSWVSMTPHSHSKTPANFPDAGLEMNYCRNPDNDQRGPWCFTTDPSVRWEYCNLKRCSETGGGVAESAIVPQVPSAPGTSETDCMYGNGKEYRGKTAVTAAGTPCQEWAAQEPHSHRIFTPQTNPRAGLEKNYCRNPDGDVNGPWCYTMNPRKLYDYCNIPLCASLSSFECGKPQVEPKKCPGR
Plasminogen, sequence (Q01177 582-812 limits assumed): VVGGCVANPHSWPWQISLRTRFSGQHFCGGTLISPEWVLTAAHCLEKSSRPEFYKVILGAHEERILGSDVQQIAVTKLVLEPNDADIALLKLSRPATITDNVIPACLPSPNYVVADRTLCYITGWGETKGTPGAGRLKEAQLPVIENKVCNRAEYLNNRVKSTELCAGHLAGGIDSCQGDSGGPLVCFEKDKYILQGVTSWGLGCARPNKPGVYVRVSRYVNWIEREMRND
Serine protease 1, sequence (P07477 whole entry): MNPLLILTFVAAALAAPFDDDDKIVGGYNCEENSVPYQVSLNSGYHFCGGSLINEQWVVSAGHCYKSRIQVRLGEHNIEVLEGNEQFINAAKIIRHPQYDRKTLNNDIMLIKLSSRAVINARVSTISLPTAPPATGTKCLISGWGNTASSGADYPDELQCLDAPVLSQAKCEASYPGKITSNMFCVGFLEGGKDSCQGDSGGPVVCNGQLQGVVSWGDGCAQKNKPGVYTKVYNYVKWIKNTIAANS

As to `CC(C)(C)CC(=O)N[C@H](Cc1ccccc1)C(=O)N1CCC[C@H]1C(=O)N[C@@H](CCCN=C(N)N)C(=O)c1nc2ccccc2[nH]1`, the IC50 against Plasminogen is more than 2500 nM; on Prothrombin, 92.1 nM; in experiment [1], more than 2500 nM; against Serine protease 1 it was 1010 nM.

In the case of `CC(=O)N[C@H](Cc1ccccc1)C(=O)N[C@@H](Cc1cccc2ccccc12)C(=O)N[C@@H](CCCN=C(N)N)C(=O)c1nc2ccccc2o1`, the IC50 against Plasminogen was 14.2 nM; on Prothrombin it was more than 2500 nM; in experiment [1] it was 29 nM; against Serine protease 1, 6.4 nM.

`CC(C)(C)CC(=O)N[C@H](Cc1ccccc1)C(=O)N1CCC[C@H]1C(=O)N[C@@H](CCCNC(=N)N)C(=O)c1nc2ccccc2o1`: the IC50 turned out to be 1320 nM at Plasminogen, 68 nM against Prothrombin, 110 nM in experiment [1] and 2.3 nM against Serine protease 1.

Regarding `CC(=O)N[C@H](Cc1ccccc1)C(=O)N1CCC[C@H]1C(=O)N[C@H]1CCCN(C(=N)N)C1O` (some centres undefined), the IC50 on Plasminogen is more than 2500 nM; on Prothrombin, 284 nM; in experiment [1], more than 2500 nM; at Serine protease 1, 156 nM.

`CC(=O)N[C@H](Cc1ccccc1)C(=O)N[C@@H](Cc1cccc2ccccc12)C(=O)N[C@H]1CCCN(C(=N)N)C1O` (some centres undefined): the IC50 on Plasminogen was less than 25 nM; on Prothrombin, more than 2500 nM; against Serine protease 1, 25 nM.
